# Data from US9499790B2, “Method for promoting differentiation of pluripotent stem cells into cardiac muscle cells” (Kyoto University, priority 2010, dated 2016).
# B1: G-CSF: granulocyte-colony stimulating factor (protein, UniProt P09919 31-207, looked up)
# Granulocyte …: TPLGPASSLPQSFLLKCLEQVRKIQGDGAALQEKLVSECATYKLCHPEELVLLGHSLGIPWAPLSSCPSQALQLAGCLSQLHSGLFLYQGLLQALEGISPELGPTLDTLQLDVADFATTIWQQMEELGMAPALQPTQGAMPAFASAFQRRAGGVLVASHLQSFLEVSYRVLRHLAQP
# Assays:
# [1] = test system: monkey ES cells (CMK 6.4 cynomolgus monkey ES cell line); assay: Cardiac muscle cell differentiation of monkey ES cells, compound day 4 to 8, GFP fluorescence at day 10 (MetaMorph); format: cell-based; conditions: for effect of promoting cardiac muscle cell differentiation, carbon chain length (n) series: FIG. 16; for effect of promoting cardiac muscle cell differentiation, SO2031 versus SO3042: 0.4 μM and 2 μM, separate experiment; for effect compared to SO3031 (KY01-I): low dose (0.1 μM)
# Description: Compounds substituted at the position R7 of Formula 1, which corresponds to Cl of KY02111, were synthesized and examined for the effect of promoting cardiac muscle cell differentiation in a dose-dependent manner in monkey ES cells as described in Example 2. Specifically, a vector expressing green fluorescent protein (GFP) under control of promoter of α-MHC gene, a marker of cardiac muscle cell differentiation, was introduced into monkey ES cells (CMK 6.4 cynomolgus monkey ES cell line) and the cells were seeded on 6-well culture plates (Asahi Glass/5816-006: Ezview culture plate) in 4.0×10^5 cells/well, and cultured in an IMDM-based differentiation medium for cardiac muscle cells (200 ml IMDM (Sigma) containing 50 ml bovine fetal serum (GIBCO), 2.5 ml MEM non-essential amino acid solution (Sigma), 2.5 ml penicillin-streptomycin (GIBCO), 2.5 ml 200 mM L-glutamine, 2 μl 2-mercaptoethanol). Each compound was added to the cells during day 4 to day 8 of the cardiac muscle cell differentiation culture, and the GFP fluorescence was analyzed at day 10 by using MetaMorph imaging system.
# Monkey ES cells = assay: Cardiac muscle cell differentiation of monkey ES cells, 6-well plate, GFP expression observed at day 14; format: cell-based; conditions: for effect of BIO on the compound's effect of cardiac muscle cell differentiation (GFP expression): BIO 5 μM added together with the compound during day 4 to 10; for effect of BIO on the compound's effect of cardiac muscle cell differentiation (GFP expression) / increase in the GFP expression level: GFP at day 14
# Description: In the same manner as Example 2, the effects of promoting cardiac muscle cell differentiation were compared among KY02111 and N11474, known Wnt signaling inhibitors (IWP2, XAV939 and IWR1), proteins known to be effective in promoting cardiac muscle cell differentiation (G-CSF, IGFBP4, Dkk1 and cytokines (a mixture of bFGF, BMP4, VEGF, DKK1 and Activin A)).
# The effect of BIO, a Wnt signaling activator, on the effect of promoting cardiac muscle cell differentiation of KY02111, XAV939 and IWP2 was analyzed. […]
# [2] = test system: Wnt signaling target genes in human iPS cells; assay: Gene expression analysis by DNA array and quantitative polymerase chain reaction; format: cell-based; conditions: FIG. 9
# Method: (in the order of the genes whose expression were reduced most 12 hours later) HOXA1, MSGN1, NKD1, T, TNFRSF11B, DKK1, DKK4, CDX2, MSX1, NODAL, FGF4, PAPPA, PRRX1, LRAT, CYP1B1, SLC34A2, AXIN2, LGL1, SPS, MIXL1, APCDD1 and DSEL. […] The analyzed genes were as follows: MSGN1, HOXA1; T, MIXL1; Dkk1, AXIN2; NODAL and FGF4 (all known as Wnt signaling target genes).
# human ES cells (KhES-3) = assay: Percentage of cardiac muscle cells by flow cytometry with cardiac troponin T (cTnT) antibody; format: cell-based; conditions: 2 μM during days 3-8; 3 μM CHIR99021 first two days; without compound 17.9%
# Method: (§1) The effect of promoting cardiac muscle cell differentiation of SO2031 (KY02-I) was confirmed using human ES cells (KhES-3) and iPS cells (IMR90-1) (FIG. 19). Induction of cardiac muscle cell differentiation was performed as described previously (Cell Reports, Volume 2, Issue 5, 1448-1460, 25 Oct. 2012). Specifically, IMDM (Sigma) containing 1% MEM non-essential amino acid solution (Sigma), 1% penicillin-streptomycin (Gibco), 2 mM L-glutamine (Sigma), 0.5 mM L-carnitine (Sigma), 0.001% 2-mercaptoethanol (Gibco), and 0.4% human serum albumin (Sigma) was used for culture. Cardiac muscle cell differentiation was induced in Ultra-low attachment culture dish (Corning) by floating culture. During the first two days, 3 μM CHIR99021, a WNT activator, was added, and during days 3-8 of culture, 2 μM SO2031 (KY02-I) was added. Efficiency of cardiac muscle cell differentiation was determined by calculating the percentage of cardiac muscle cells by flow cytometry using an antibody for cardiac troponin T (cTnT), a cardiac-specific marker molecule.
# [3] = test system: human iPS cells (IMR90-1); assay: as above; format: cell-based; conditions: 2 μM during days 3-8; 3 μM CHIR99021 first two days; without compound 3.7%
# Method: as §1
# [4] = Solubility in medium (observation of crystals); format: physicochemical; conditions: after 24 hours
# Method: SO2031 (KY02-I) was dissolved in 20% serum-containing medium (200 ml IMDM (Sigma) containing 50 ml bovine fetal serum (GIBCO), 2.5 ml MEM non-essential amino acid solution (Sigma), 2.5 ml penicillin-streptomycin (GIBCO), 2.5 ml 200 mM L-glutamine, 2 μl 2-mercaptoethanol) at 20 μM, and in serum-free medium (200 ml IMDM (Sigma) containing 2.5 ml MEM non-essential amino acid solution (Sigma), 2.5 ml penicillin-streptomycin (GIBCO), 2.5 ml 200 mM L-glutamine, 2 μl 2-mercaptoethanol) at 3 or 20 μM and observed after 24 hours (FIG. 20). […] As the compound is not crystallized, the concentration of the compound in the medium is stably maintained. Also, there is no possibility that the crystals affect the cells, and there is no risk that the crystals remained in the cells are transferred to and affect the host at transplantation.
# [5] = test system: monkey ES cell line (CMK 6.4 cynomolgus monkey ES cells); assay: Screening of library compounds: GFP expression under alpha-MHC promoter, 96-well plates; format: cell-based; conditions: about 1 to 5 μM compound/well during day 6 to 14; HCS system
# Method: A vector expressing green fluorescent protein (GFP) under control of promoter of α-MHC gene, a marker of cardiac muscle cell differentiation, was introduced into monkey ES cell line (CMK 6.4 cynomolgus monkey ES cells) and the cells were seeded on 96-well culture plates (Greiner/655090: 96 well FIA black plate) in 5.0×10^3 cells/well, and cultured for 14 days in an IMDM-based differentiation medium for cardiac muscle cells (200 ml. IMDM (Sigma 13390) containing 50 ml bovine fetal serum (GIBCO 10099-141), 2.5 ml MEM non-essential amino acid solution (Sigma M7145), 2.5 ml penicillin-streptomycin (GIBCO 15140), 2.5 ml 200 mM L-glutamine, 2 μl 2-mercaptoethanol (Sigma M7522), 255 μl 5N NaOH). During day 6 to 14 of culture, 9,600 library compounds were added into separate wells (about 1 to 5 μM compound/well). Then, at […] of culture, GFP expression level was determined by using HCS (high contents screening) system (Molecular device/MetaMorph imaging system).
# Human iPS (IMR90-4) = assay: Number of beating colonies of cardiac muscle cells; format: cell-based; conditions: N11474 10 μM during day 4 to 14
# Method: (§2) The effect of promoting differentiation of each of the ES/iPS cells into cardiac muscle cells were confirmed for N11474 and KY02111 with the GFP expression level and number of beating colonies used as the indicators. Human ES cell line (Kh-1 line) (Suemori, H., et al., Efficient establishment of human embryonic stem cell lines and long-term maintenance with stable karyotype by enzymatic bulk passage. Biochem Biophys Res Commun. 345(3), 926-32 (2006)) (incorporated herein by reference) was seeded in a 6-well plate (Asahi Glass/5816-006: Ezview culture plate) in 1.2×10^6 cells/well and cultured for 22 days, with BMP4 (10 ng/ml) added during day 0 to 4 of culture and N11474 (10 μM) or KY02111 (5 μM) added during day 4 to 14 of culture. Human iPS cell lines (253G1, IMR90-1, IMR90-4 and RCHIPC0003) (Takahashi, K., et al., Induction of pluripotent stem cells from adult human fibroblasts by defined factors. Cell. 131(5), 861-72 (2007); Yu, J., et al., Induced pluripotent stem cell lines derived from human somatic cells. Science. 318(5858), 1917-20 (2007)) (these references are herein incorporated by reference) were cultured for the cardiac muscle cell differentiation in the same manner as for the human ES cells. The cardiac muscle cells from mouse ES cells (R1) were differentiated in accordance with the method described in the reference (Transient inhibition of BMP signaling by Noggin induces cardiomyocyte differentiation of mouse embryonic stem cells. Yuasa S, et al. Nat. Biotechnol. 2005 May; 23(5): 607-11; incorporated herein by reference). KY02111 (5 μM) was added for 3 days during day 6 to 9 of cardiac muscle cell differentiation culture and the beating colonies of cardiac muscle cells were analyzed at day 9. Monkey ES cells (CMK6.4) were cultured for cardiac muscle cell differentiation in the same manner as in the above (2).
# [6] = test system: Human ES cell line (Kh-1 line); assay: Cardiac muscle cell differentiation (GFP expression level, number of beating colonies); format: cell-based; conditions: N11474 10 μM during day 4 to 14
# Method: as §2, with “The cardiac muscle cells from mouse ES cells (R1) were differentiated in accordance with the method described in the reference (Transient inhibition of BMP signaling by Noggin induces cardiomyocyte differentiation of mouse embryonic stem cells. Yuasa S, et al. Nat. Biotechnol. 2005 May; 23(5): 607-11; incorporated herein by reference).” left out, “Monkey ES cells (CMK6.4) were cultured for cardiac muscle cell differentiation in the same manner as in the above (2).” left out
# [7] = nitrovin 1 μM during day 8 to 12, singly
molecule,measurement,setting,value
"COc1ccc(CC(=O)Nc2nc3ccc(I)cc3s2)cc1OC [SO3031, 2-(2-(3,4-dimethoxyphenyl)acetamide)-6-iodobenzothiazole]","effect of promoting cardiac muscle cell differentiation, carbon chain length (n) series",[1],higher effect compared to KY02111
"COc1ccc(CCCC(=O)Nc2nc3ccc(I)cc3s2)cc1OC [SO3042, 2-(4-(3,4-dimethoxyphenyl)butamide)-6-iodobenzothiazole]","effect of promoting cardiac muscle cell differentiation, SO2031 versus SO3042","[1]; 0.1 μM, FIG. 17",comparable effect
same,"effect of promoting cardiac muscle cell differentiation, carbon chain length (n) series",[1],higher effect compared to KY02111
same,effect compared to SO2031 (KY02-I),[1]; high dose (10 μM or 30 μM),1.3 times
same,"effect of promoting cardiac muscle cell differentiation, SO3042 versus SO2031","[1]; higher dose (10 μM), FIG. 17",slightly higher than that of SO2031
same,effect compared to SO3031 (KY01-I),[1],2.8 times
"Cc1ccc2nc(NC(=O)CSc3nc4c(c(=O)n3-c3ccccc3)SCC4)sc2c1 [IWP2, reference compound]",effect of BIO on the compound's effect of cardiac muscle cell differentiation (GFP expression),Monkey ES cells,inhibited
same,"expressions of MSGN1, HOXA1, T, MIXL1, Dkk1, AXIN2, NODAL and FGF4 (Wnt signaling target genes) by qPCR",[2],reduced
"N=C(N)NN=C(/C=C/c1ccc([N+](=O)[O-])o1)/C=C/c1ccc([N+](=O)[O-])o1 [nitrovin, reference compound]",increase in the GFP expression level,Monkey ES cells; 5 μM during day 8 to 14,about 400%
same,increase in the GFP expression level versus Control (DMSO),Monkey ES cells; [7],about 3 times
same,proportion of beating colonies,Monkey ES cells; [7],about 16%
same,ratio of number of GFP colonies,Monkey ES cells; [7],about 22%
"COc1ccc(CCC(=O)Nc2nc3ccc(I)cc3s2)cc1OC [SO2031, 2-(3-(3,4-dimethoxyphenyl)propanamid)-6-iodobenzothiazole]",ratio of cardiac muscle cells (cTnT),human ES cells (KhES-3),77.9%
same,ratio of cardiac muscle cells (cTnT),[3],56.8%
same,crystals in medium,"[4]; 20% serum-containing medium at 20 μM, serum-free medium at 3 or 20 μM",Large crystals were not observed
same,crystals in medium,"[4]; serum-free medium, 3 μM",almost no crystal was observed
same,"effect of promoting cardiac muscle cell differentiation, times higher than that of KY02111",[1]; 0.1 μM,about 16 times
same,"effect of promoting cardiac muscle cell differentiation, times higher than that of SO087",[1]; 0.1 μM,about 5.2 times
same,"effect of promoting cardiac muscle cell differentiation, SO2031 versus SO3042","[1]; 0.1 μM, FIG. 17",comparable effect
same,"effect of promoting cardiac muscle cell differentiation, times higher than that of KY02111",[1]; 1 μM,~6.3 times
same,"effect of promoting cardiac muscle cell differentiation, times higher than that of SO087",[1]; 1 μM,~2 times
same,"effect of promoting cardiac muscle cell differentiation, times higher than that of KY02111",[1]; 10 μM,~2.1 times
same,"effect of promoting cardiac muscle cell differentiation, times higher than that of SO087",[1]; 10 μM,~1.6 times
same,"effect of promoting cardiac muscle cell differentiation, times higher than that of KY02111",[1]; 30 μM,~1.5 times
same,"effect of promoting cardiac muscle cell differentiation, times higher than that of SO087",[1]; 30 μM,~1.1 times
same,"effect of promoting cardiac muscle cell differentiation, carbon chain length (n) series",[1],higher effect compared to KY02111
same,effect compared to SO3031 (KY01-I),[1],2.7 times
"COc1ccc(CCC(=O)Nc2nc3ccc([N+](=O)[O-])cc3s2)cc1OC [KY01042, 2-(3-(3,4-dimethoxyphenyl)propanamide)-6-nitrobenzothiazole]",increase in the GFP expression level,Monkey ES cells; 10 μM during day 4 to 10,7000%
"Oc1nc(-c2ccc(C(F)(F)F)cc2)nc2c1CSCC2 [XAV939, reference compound]",effect of BIO on the compound's effect of cardiac muscle cell differentiation (GFP expression),Monkey ES cells,inhibited
same,"expressions of MSGN1, HOXA1, T, MIXL1, Dkk1, AXIN2, NODAL and FGF4 (Wnt signaling target genes) by qPCR",[2],reduced
COc1ccc2nc(NC(=O)Cc3ccc(OC)c(OC)c3)sc2c1 [N11474],GFP expression level,[5],high GFP expression levels
same,increase in the GFP expression level,Monkey ES cells; 10 μM during day 4 to 10,1000%
same,Beating cardiac muscle cell differentiation efficiency (Control (DMSO) = 100%),Human iPS (IMR90-4),4000% (N11474)
same,Beating cardiac muscle cell differentiation efficiency (Control (DMSO) = 100%),[6]; Human ES (Kh-1),1100% (N11474)
same,GFP expression level,"[6]; at day 14 and after of culture, FIG. 6",significant increase
"O=C1Nc2cc(Br)ccc2/C1=C1/Nc2ccccc2/C1=N\O [BIO, reference compound]","expressions of MSGN1, HOXA1, T, MIXL1, Dkk1, AXIN2, NODAL and FGF4 (Wnt signaling target genes) by qPCR",[2],increased
B1,increase in the GFP expression level,Monkey ES cells; 5 ng/ml during day 4 to 10,about 250%
